Experiments:
Cotton (CT) [1] = assay: Pre-emergence herbicide test; assay type: in vivo, Gossypium hirsutum var. DPL smooth leaf; conditions: Gossypium hirsutum, 336 h, 8 lb/acre, two weeks after treatment
How it was run: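 Crop and weed species seeded one day before treatment, then sprayed pre-emergence at 8 lbs actual compound per acre (also 4 lbs/acre formulations) in 38 gallons per acre. Pots kept in greenhouse with sub-irrigation only; injury or control visually rated two weeks after treatment.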

Barnyard grass (BG) [2] = assay: Post-emergence herbicide test; assay type: in vivo; conditions: Echinochloa crus-galli, 336 h, 8 lb/acre, two weeks after treatment
How it was run: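 Greenhouse pot-grown barnyard grass seedlings sprayed post-emergence at 8 lbs active compound per acre (some at 4 lbs/acre) in 38 gallons per acre, then sub-irrigated. Injury or control rated visually two weeks after treatment.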

Turnip (TP) [3] = assay: Post-emergence herbicide test; assay type: in vivo, Brassica sp.; conditions: Brassica rapa, post-emergence, 336 h; 8 lb/acre; two weeks after treatment
How it was run: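 A greenhouse post-emergence herbicide test on turnip. Seeds were sown on the surface of potting soil in 3' plastic pots, lightly covered with screened soil and watered from below. Planting was timed so seedlings had 1 or 2 true leaves above the cotyledons at spraying, done in a hood with a fixed nozzle. Control or injury was scored by eye after two weeks.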

Barnyard grass (BG) [4] = assay: Pre-emergence herbicide test; assay type: in vivo; conditions: Echinochloa crus-galli, 336 h, 8 lb/acre, two weeks after treatment
How it was run: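 Barnyard grass surface-seeded in potting soil and sprayed pre-emergence one day after seeding, at 8 or 4 lb compound/acre in 38 gal/acre spray volume. Pots kept in greenhouse with sub-irrigation only; injury or control rated visually two weeks after treatment.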

Cotton (CT) [5] = assay: Post-emergence herbicide test; assay type: in vivo, Gossypium hirsutum var. DPL smooth leaf; conditions: Gossypium hirsutum, post-emergence, 336 h; 8 lb/acre; two weeks after treatment
How it was run: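 Cotton (Gossypium hirsutum var. DPL smooth leaf) was grown in 3' plastic pots of potting soil, four seeds per pot, planted at a depth equal to the seed diameter and watered by sub-irrigation. At the stage of expanded cotyledons with the first true leaf 1' long, plants were sprayed post-emergence in a hood with a fixed nozzle over a moving belt. Percent control was rated visually two weeks later.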

Amaranth pigweed (PW) [6] = assay: Post-emergence herbicide test; assay type: in vivo, Amaranthus retroflexus; conditions: 336 h, 8 lb/acre, two weeks after treatment
How it was run: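 Pot-grown pigweed was sprayed post-emergence at the 1–2 true-leaf stage with compound at rates equivalent to 8 lbs per acre (formulations also prepared for 4 lbs/acre) in 38 gallons per acre, using a hood with fixed nozzle. Plants were sub-irrigated in the greenhouse, and injury or control was rated visually two weeks after treatment.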

Amaranth pigweed (PW) [7] = assay: Pre-emergence herbicide test; assay type: in vivo, Amaranthus retroflexus; conditions: 336 h, 8 lb/acre, two weeks after treatment
How it was run: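 Pigweed was surface-seeded in potted soil one day before spraying at 8 lbs compound per acre, or 4 lbs/acre, in 38 gallons per acre. Pots were kept in the greenhouse with sub-irrigation only; injury or control was rated visually two weeks after treatment.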

[8] = tested on: Yellow foxtail grass (YF); assay: Pre-emergence herbicide test; assay type: in vivo, Setaria glauca; conditions: Setaria, 336 h, 8 lb/acre, two weeks after treatment
Procedure: Yellow foxtail grass (YF)--Setaria glauca
All crop and weed species were planted individually in 3' plastic pots containing potting soil. Four seeds each of corn, cotton, and snapbeans were seeded to a depth equal to the diameter of the seed. All other species were surface seeded and sprinkled with screened soil in an amount sufficient to cover the seed. Immediately after planting, all pots were watered by sub-irrigation in greenhouse trays. Pots for the pre-emergence phase were seeded one day before treatment.
Compounds were tested at rates of application equivalent to 8 lbs. of actual compound per acre in a spray volume of 38 gallons per acre. Spray hood constants required to deliver the above volume are as follows:
Formulations for spray applications were prepared in 50 ml volumes with the following three components:
Formulations for the 4 lbs/acre rate were prepared by adjusting the amount of active ingredient accordingly.
Spray applications were made in a hood containing a removable belt and fixed spray nozzle. For passage through the spray hood, one pot of each specie (pre-emergence phase) was placed on the rear half of the flat. Treatments were removed to the greenhouse after spraying. Watering during the observation period was done only by sub-irrigation.
Two weeks after treatment, pre- and post-emergence injury or control was visually rated, and the results were as shown in the following tables. Pre-emergence data are provided in TABLE III and post-emergence data are provided in TABLE IV, for compounds having the formula illustrated in TABLE I. Correspondingly, pre-emergence and post-emergence data, respectively, are set forth in TABLES V AND VI, for compounds having the formula illustrated in TABLE II.

Bean (BN) [9] = assay: Post-emergence herbicide test; assay type: in vivo, Phaseolus vulgaris var. Black Valentine; conditions: Phaseolus vulgaris, post-emergence, 336 h; 8 lb/acre; two weeks after treatment
How it was run: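 Snapbean (Phaseolus vulgaris var. Black Valentine) was tested post-emergence. Four seeds were sown in 3' plastic pots of potting soil at a depth equal to the seed diameter, then sub-irrigated in greenhouse trays. Planting dates were staggered so plants were sprayed once primary leaves had expanded, with the growing point at the primary leaf nodes.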

Corn (CN) [10] = assay: Post-emergence herbicide test; assay type: in vivo; conditions: Zea mays, 336 h, 8 lb/acre, two weeks after treatment
How it was run: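 Greenhouse seedlings grown in potting soil and sprayed post-emergence at 8 lbs compound/acre (formulations also made for 4 lbs/acre) in 38 gallons/acre spray volume. Watering by sub-irrigation only. Injury or control rated visually two weeks after treatment.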

Johnson grass (JG) [11] = assay: Pre-emergence herbicide test; assay type: in vivo, Sorgum helepense; conditions: Sorghum halepense, 336 h, 8 lb/acre, two weeks after treatment
How it was run: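 Pots seeded one day before spraying; compound applied pre-emergence at 8 lbs/acre (or 4 lbs/acre) in 38 gallons/acre spray volume. Sub-irrigated in greenhouse; injury/control rated visually two weeks after treatment.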

Crabgrass (CG) [12] = assay: Post-emergence herbicide test; assay type: in vivo, Digitaria sanquinalis; conditions: Digitaria sanguinalis, post-emergence, 336 h; 8 lb/acre; two weeks after treatment
How it was run: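 Crabgrass (Digitaria sanquinalis) was surface seeded individually in 3' plastic pots of potting soil, covered with screened soil, and watered by sub-irrigation in greenhouse trays. Planting was staggered so seedlings reached the target stage together. Post-emergence sprays were applied in a hood with a removable belt and fixed nozzle, and control was visually rated two weeks after treatment.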

[13] = tested on: Yellow foxtail grass (YF); assay: Post-emergence herbicide test; assay type: in vivo, Setaria glauca; conditions: Setaria, 336 h, 8 lb/acre, two weeks after treatment
How it was run: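 Potted seedlings grown in greenhouse, planting staggered to reach the target stage together, then sprayed post-emergence at 8 lbs actual compound/acre in 38 gallons/acre (4 lbs/acre formulations also prepared). Sub-irrigated afterwards. Injury or control rated visually two weeks after treatment.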

Crabgrass (CG) [14] = assay: Pre-emergence herbicide test; assay type: in vivo, Digitaria sanquinalis; conditions: Digitaria sanguinalis, pre-emergence, 336 h; 8 lb/acre; two weeks after treatment
How it was run: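 Crabgrass (Digitaria sanquinalis) was surface seeded in 3' plastic pots of potting soil, covered with screened soil, and watered by sub-irrigation in greenhouse trays. Pots were seeded one day before spraying in a hood with a moving belt and fixed nozzle. Plants stayed in the greenhouse on sub-irrigation, and pre-emergence control was rated visually two weeks after treatment.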

Corn (CN) [15] = assay: Pre-emergence herbicide test; assay type: in vivo; conditions: Zea mays, 336 h, 8 lb/acre, two weeks after treatment
How it was run: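 Four corn seeds per pot, sown at seed-diameter depth one day before spraying, got soil surface treatment at 8 lbs/acre (4 lbs/acre formulations also prepared) in 38 gallons/acre. Pots were greenhouse-held with sub-irrigation only. Injury or control was scored visually two weeks after treatment.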

Turnip (TP) [16] = assay: Pre-emergence herbicide test; assay type: in vivo, Brassica sp.; conditions: Brassica rapa, pre-emergence, 336 h; 8 lb/acre; two weeks after treatment
How it was run: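 Turnip (Brassica sp.) seeds were surface sown in 3' plastic pots of potting soil, covered with a thin layer of screened soil, and sub-irrigated in greenhouse trays. Pots were seeded one day ahead of treatment, sprayed pre-emergence under a hood with a fixed nozzle and moving belt, then kept in the greenhouse.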

Bean (BN) [17] = assay: Pre-emergence herbicide test; assay type: in vivo, Phaseolus vulgaris var. Black Valentine; conditions: Phaseolus vulgaris, 336 h, 8 lb/acre, two weeks after treatment
How it was run: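 Black Valentine bean was seeded in potting soil one day before spraying. Compound was applied pre-emergence at 8 lbs/acre (also 4 lbs/acre) in 38 gallons per acre. Plants were sub-irrigated and injury or control was rated visually after two weeks.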

Johnson grass (JG) [18] = assay: Post-emergence herbicide test; assay type: in vivo, Sorgum helepense; conditions: Sorghum halepense, 336 h, 8 lb/acre, two weeks after treatment
How it was run: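 Greenhouse pot-grown seedlings sprayed post-emergence at 8 lbs compound per acre (some at 4 lbs/acre) in 38 gallons per acre spray volume. Sub-irrigated thereafter. Injury/control rated visually two weeks after treatment.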

| SMILES | pest or weed control at 8966.8 g/ha (Cotton (CT) [1]) [%] | pest or weed control at 8966.8 g/ha (Barnyard grass (BG) [2]) [%] | pest or weed control at 8966.8 g/ha (Turnip (TP) [3]) [%] | pest or weed control at 8966.8 g/ha (Barnyard grass (BG) [4]) [%] | pest or weed control at 8966.8 g/ha (Cotton (CT) [5]) [%] | pest or weed control at 8966.8 g/ha (Amaranth pigweed (PW) [6]) [%] | pest or weed control at 8966.8 g/ha (Amaranth pigweed (PW) [7]) [%] | pest or weed control at 8966.8 g/ha [8] [%] | pest or weed control at 8966.8 g/ha (Bean (BN) [9]) [%] | pest or weed control at 8966.8 g/ha (Corn (CN) [10]) [%] | pest or weed control at 8966.8 g/ha (Johnson grass (JG) [11]) [%] | pest or weed control at 8966.8 g/ha (Crabgrass (CG) [12]) [%] | pest or weed control at 8966.8 g/ha [13] [%] | pest or weed control at 8966.8 g/ha (Crabgrass (CG) [14]) [%] | pest or weed control at 8966.8 g/ha (Corn (CN) [15]) [%] | pest or weed control at 8966.8 g/ha (Turnip (TP) [16]) [%] | pest or weed control at 8966.8 g/ha (Bean (BN) [17]) [%] | pest or weed control at 8966.8 g/ha (Johnson grass (JG) [18]) [%] |
| --- | --- | --- | --- | --- | --- | --- | --- | --- | --- | --- | --- | --- | --- | --- | --- | --- | --- | --- |
| O=C(Nc1ccccc1)Nc1nnc(C(F)(F)F)s1 [Example 14] | 50 | 10 | 10 | 10 | 50 | 90 | 90 | 10 | 100 | 50 | 20 | 10 | 10 | 10 | 50 | 10 | 100 | 20 |
| CCNC(=O)Nc1nnc(SC)s1 [Example 28] | 40 | 20 | 50 | 50 | 70 | 30 | 30 | 30 | 50 | 20 | 20 | 20 | 20 | 40 | 10 | 0 | 80 | 20 |
| CCCNC(=O)Nc1nnc(SC)s1 [Example 29] | 30 | 20 | 40 | 10 | 60 | 40 | 10 | 10 | 100 | 20 | 10 | 30 | 20 | 20 | 30 | 0 | 80 | 20 |
| C=CCNC(=O)Nc1nnc(SC)s1 [Example 31] | 30 | 20 | 50 | 30 | 100 | 90 | 20 | 70 | 100 | 20 | 20 | 30 | 30 | 70 | 10 | 30 | 80 | 30 |
| CCSc1nnc(NC(=O)NC)s1 [Example 32] | 50 | 100 | 90 | 90 | 100 | 100 | 100 | 90 | 100 | 60 | 70 | 100 | 90 | 90 | 70 | 90 | 80 | 90 |

— US4175081A, “5-Substituted thiadiazole ureas” (priority 1977, dated 1979)
